This is an account of results in ChEMBL document CHEMBL4308897, “Antileishmanial activity and cytotoxicity of ent-beyerene diterpenoids” (Bioorg Med Chem, 2019).

Data set [1] is described as follows: Selectivity index, ratio of LC50 for human U937 cells to EC50 for Leishmania (Viannia) braziliensis HMOM/COL/88/UA301-EGFP intracellular amastigotes infected in human U937 cells. Format: toxicity, cell-based. The settings on record: read-out: Selectivity Index.
Data set [2] concerns Leishmania braziliensis. Kind of data set: Antileishmanial activity against Leishmania (Viannia) braziliensis HMOM/COL/88/UA301-EGFP intracellular amastigotes infected in human U937 cells after 72 hrs by flow cytometric analysis. As to conditions: HMOM/COL/88/UA301, U-937, 72 h. It is filed as functional, organism-based. A general note: A flow cytometer gives signals particle by particle.

The nature of data set [3]: Cytotoxicity against human U937 cells after 72 hrs by MTT assay. The settings on record: read-out: LC50. It is filed as cell-based, U-937. Background: Tetrazolium dyes change colour on reduction, which living cells bring about.
Data set [4] deals with Syrian golden hamster. Kind of data set: Antiinflammatory activity in golden hamster infected with Leishmania (Viannia) braziliensis HMOM/COL/88/UA301-EGFP assessed as migration of macrophages in skin at 0.81% to 1.96% administered topically as cream formulation for 20 days and measured 3 months post last treatment by histopathological analysis. It is filed as functional, organism-based. The settings on record: Mesocricetus auratus.

The nature of data set [5]: Toxicity in golden hamster infected with Leishmania (Viannia) braziliensis HMOM/COL/88/UA301-EGFP assessed as effect on serum creatinine level at 0.81% to 1.96% administered topically as cream formulation for 20 days and measured day 8 post last treatment. Details: species or system Mesocricetus auratus. The settings on record: in vivo, topical_or_ocular, 480 h.
The subject of data set [6] is Leishmania braziliensis. The data set can be described thus: Antileishmanial activity against Leishmania (Viannia) braziliensis HMOM/COL/88/UA301-EGFP infected in golden hamster assessed as relapse at 0.81% administered topically as cream formulation for 20 days measured 3 months post last dose relative to control. It is filed as functional.
In data set [7] the test system is Leishmania braziliensis. The data set can be described thus: Antileishmanial activity against Leishmania (Viannia) braziliensis HMOM/COL/88/UA301-EGFP infected in golden hamster assessed as relapse at 1.96% administered topically as cream formulation for 20 days measured 3 months post last dose relative to control. Format: functional.
Data set [8] concerns Leishmania braziliensis. The data set can be described thus: Antileishmanial activity against Leishmania (Viannia) braziliensis HMOM/COL/88/UA301-EGFP infected in golden hamster assessed as clinical failure at 1.96% administered topically as cream formulation for 20 days measured 3 months post last dose relative to control. It is filed as functional.
The nature of data set [9]: Hepatotoxicity in golden hamster infected with Leishmania (Viannia) braziliensis HMOM/COL/88/UA301-EGFP assessed as hemosiderin pigmentation at 0.81% to 1.96% administered topically as cream formulation for 20 days measured 90 days post last dose by histopathological analysis. It is filed as toxicity, Mesocricetus auratus. The settings on record: in vivo, topical_or_ocular, 2160 h.

Data set [10] can be described thus: Toxicity in golden hamster infected with Leishmania (Viannia) braziliensis HMOM/COL/88/UA301-EGFP assessed as effect on serum BUN level at 0.81% to 1.96% administered topically as cream formulation for 20 days and measured day 8 post last treatment. Details: species or system Mesocricetus auratus. The settings on record: in vivo, topical_or_ocular, 480 h.
The test system of data set [11] is Leishmania braziliensis. The data set can be described thus: Antileishmanial activity against Leishmania (Viannia) braziliensis HMOM/COL/88/UA301-EGFP infected in golden hamster assessed as clinical failure at 0.81% administered topically as cream formulation for 20 days measured 3 months post last dose relative to control. It is filed as functional.
Data set [12] is described as follows: Hepatotoxicity in golden hamster infected with Leishmania (Viannia) braziliensis HMOM/COL/88/UA301-EGFP assessed as infiltration of lymphocytes at 0.81% to 1.96% administered topically as cream formulation for 20 days measured 90 days post last dose by histopathological analysis. It is filed as toxicity, Mesocricetus auratus. As to conditions: in vivo, topical_or_ocular, 2160 h.

Data set [13] deals with Leishmania braziliensis. The data set can be described thus: Antileishmanial activity against Leishmania (Viannia) braziliensis HMOM/COL/88/UA301-EGFP infected in golden hamster assessed as cure rate at 0.81% administered topically as cream formulation for 20 days measured 3 months post last dose relative to control. Format: functional.
A short description of data set [14]: Toxicity in golden hamster infected with Leishmania (Viannia) braziliensis HMOM/COL/88/UA301-EGFP assessed as effect on serum alanine aminotransferase level at 0.81% to 1.96% administered topically as cream formulation for 20 days and measured day 8 post last treatment. The settings on record: in vivo, topical_or_ocular, 480 h. Details: species or system Mesocricetus auratus.

Data set [15] in a line: Hepatotoxicity in golden hamster infected with Leishmania (Viannia) braziliensis HMOM/COL/88/UA301-EGFP assessed as vacuolar degeneration at 0.81% to 1.96% administered topically as cream formulation for 20 days measured 90 days post last dose by histopathological analysis. It is filed as toxicity, Mesocricetus auratus. As to conditions: in vivo, topical_or_ocular, 2160 h.

The test system of data set [16] is Leishmania braziliensis. Kind of data set: Antileishmanial activity against Leishmania (Viannia) braziliensis HMOM/COL/88/UA301-EGFP infected in golden hamster assessed as clinical improvement at 0.81% administered topically as cream formulation for 20 days measured 3 months post last dose relative to control. It is filed as functional.
Data set [17] is described as follows: Renal toxicity in golden hamster infected with Leishmania (Viannia) braziliensis HMOM/COL/88/UA301-EGFP assessed as vacuolar degeneration at 0.81% to 1.96% administered topically as cream formulation for 20 days measured 90 days post last dose by histopathological analysis. Also on record: species or system Mesocricetus auratus. The settings on record: in vivo, topical_or_ocular, 2160 h.

In data set [18] the test system is Leishmania braziliensis. The data set can be described thus: Antileishmanial activity against Leishmania (Viannia) braziliensis HMOM/COL/88/UA301-EGFP infected in golden hamster assessed as cure rate at 1.96% administered topically as cream formulation for 20 days measured 3 months post last dose relative to control. It is filed as functional.
The subject of data set [19] is Leishmania braziliensis. Kind of data set: Antileishmanial activity against Leishmania (Viannia) braziliensis HMOM/COL/88/UA301-EGFP infected in golden hamster assessed as parasitic load per milligram of tissue at 0.81 to 1.96% administered topically as cream formulation for 20 days measured 3 months post last dose by RT-PCR analysis. It is filed as functional.
Data set [20] concerns Syrian golden hamster. Kind of data set: Antiinflammatory activity in golden hamster infected with Leishmania (Viannia) braziliensis HMOM/COL/88/UA301-EGFP assessed as migration of plasmocytes in skin at 0.81% to 1.96% administered topically as cream formulation for 20 days and measured 3 months post last treatment by histopathological analysis. Format: functional, organism-based. The settings on record: Mesocricetus auratus.

The nature of data set [21]: Toxicity in golden hamster infected with Leishmania (Viannia) braziliensis HMOM/COL/88/UA301-EGFP assessed as change in body weight at 0.81% to 1.96% administered topically as cream formulation for 20 days measured up to 90 days post last dose. Details: species or system Mesocricetus auratus. As to conditions: in vivo, topical_or_ocular.
Data set [22] has as its system Syrian golden hamster. The data set can be described thus: Antiinflammatory activity in golden hamster infected with Leishmania (Viannia) braziliensis HMOM/COL/88/UA301-EGFP assessed as migration of lymphocytes in skin at 0.81% to 1.96% administered topically as cream formulation for 20 days and measured 3 months post last treatment by histopathological analysis. The settings on record: Mesocricetus auratus. Format: functional, organism-based.

A short description of data set [23]: Hepatotoxicity in golden hamster infected with Leishmania (Viannia) braziliensis HMOM/COL/88/UA301-EGFP assessed as congestion at 0.81% to 1.96% administered topically as cream formulation for 20 days measured 90 days post last dose by histopathological analysis. As to conditions: in vivo, topical_or_ocular, 2160 h. It is filed as toxicity, Mesocricetus auratus.

Data set [24] relates to Leishmania braziliensis. Kind of data set: Antileishmanial activity against Leishmania (Viannia) braziliensis HMOM/COL/88/UA301-EGFP infected in golden hamster assessed as clinical improvement at 1.96% administered topically as cream formulation for 20 days measured 3 months post last dose relative to control. It is filed as functional.
A short description of data set [25]: Hepatotoxicity in golden hamster infected with Leishmania (Viannia) braziliensis HMOM/COL/88/UA301-EGFP assessed as infiltration of macrophages at 0.81% to 1.96% administered topically as cream formulation for 20 days measured 90 days post last dose by histopathological analysis. Format: toxicity, Mesocricetus auratus. The settings on record: in vivo, topical_or_ocular, 2160 h.

Molecules are shown by their SMILES. Calls of active or inactive are those of the source. The rule behind the calls is not given here. Where only a bound is given, the exact number is not on record here.

In general, EC50 refers to the concentration needed to bring the measured effect to its halfway point. A lower EC50 goes with an effect from little substance. On to `CCOC(=O)[C@]1(C)CCC[C@@]2(C)[C@@H]3CC[C@@]4(C)C[C@]3(CC[C@@H]21)CC4=O`, for which the selectivity ratio in data set [1] was found to be 0.86. The EC50 in the data set on Leishmania braziliensis [2] was 36.3 µM. Moreover, in [3], the CC50 at 72 h came to 51.9 µM.

`C[C@]12C=C[C@@]3(CC[C@H]4[C@@](C)(CCC[C@@]4(C)C(=O)O)[C@@H]3CC1)C2` [MONOGINOIC ACID]: in [1], the selectivity ratio is more than 2. The compound also returned an EC50 with Leishmania braziliensis [2] of more than 66 µM. Moreover, the CC50 at 72 h in data set [3] worked out at 130 µM.

For the compound `Cc1ccc(S(=O)(=O)N/N=C2/C[C@]34CC[C@H]5[C@@](C)(CCC[C@@]5(C)C(=O)O)[C@@H]3CC[C@@]2(C)C4)cc1`, the selectivity ratio in [1] is 3.1. Moreover, the midpoint of the response in the data set with Leishmania braziliensis [2], the EC50, lay at 2.3 µM. Also, in data set [3], the CC50 at 72 h is 5.9 µM.

As to `CCOC(=O)[C@]1(C)CCC[C@@]2(C)[C@@H]3CC[C@@]4(C)C[C@]3(CC[C@@H]21)C/C4=N/NS(=O)(=O)c1ccc(C)cc1`, in [1], the selectivity ratio was found to be 3.5. In addition, a half-maximal response with Leishmania braziliensis [2] (EC50) required 3 µM. In addition, the CC50 at 72 h in data set [3] was 8.8 µM.

Consider `C[C@]12CC[C@H]3[C@]4(C)CCC[C@@](C)(CO)[C@H]4CC[C@@]3(C1)[C@H]1O[C@H]12`, for which the selectivity ratio in [1] is more than 1.9. This compound also showed a concentration giving a half-maximal response (EC50) in the data set on Leishmania braziliensis [2] of more than 63 µM. Further, the CC50 at 72 h in data set [3] worked out at 118 µM.

`C[C@@]12CC[C@@H]3[C@@](CC[C@@H]4[C@](C)(CO)CCC[C@]43C)(CC1)C2`: the selectivity ratio in data set [1] was 1.6. In addition, it took 18.1 µM to reach a half-maximal effect in the data set on Leishmania braziliensis [2] (EC50). The CC50 at 72 h in data set [3] turned out to be 29.6 µM.

As to `C[C@]12C=C[C@@]3(CC[C@@H]4[C@](C)(CO)CCC[C@@]4(C)[C@@H]3CC1)C2`, the result with Syrian golden hamster [4], in the data set with Syrian golden hamster [20] and in the data set with Syrian golden hamster [22] was Active. The Activity entry in data set [5] was “Non-Toxic”; in the data set with Leishmania braziliensis [6], 0%; in the data set with Leishmania braziliensis [7], 16.7%; with Leishmania braziliensis [8], 16.7%; in data set [9], “Toxic”; in data set [10], “Non-Toxic”. The Activity in the data set on Leishmania braziliensis [11] was 0%; in data set [12], “Toxic”; with Leishmania braziliensis [13], 50%; in data set [14] it was “Non-Toxic”; in data set [15], “Toxic”; in the data set on Leishmania braziliensis [16], 50%. Besides, the Activity result is reported as “Toxic” in [17]; 16.7% with Leishmania braziliensis [18]; less than 500 in the data set with Leishmania braziliensis [19]; “Non-Toxic” in [21]; “Toxic” in [23]; 50% with Leishmania braziliensis [24]. Also, the Activity entry in data set [25] is “Toxic”. Besides, in data set [1], the selectivity ratio amounted to 5.1. For the same compound, a half-maximal effect in the data set on Leishmania braziliensis [2] (EC50) was put at 16 µM. In addition, the CC50 at 72 h in data set [3] came to 114 µM.
